How the values were obtained:
[1] = molecular target: T1, wild type transthyretin (WT-TTR) (Homo sapiens, UniProt P02766); assay: WT-TTR amyloid fibril formation assay (turbidimetry, acid-induced); type: biochemical; conditions: for Fibril Formation (%): WT-TTR 3.6 μM, 1:1 TTR-compound stoichiometry, 37° C., normalized to no-compound control (100%)
T1 construct: made in house; host or cells: E. coli BL21 (DE3), pET23a plasmid

[2] = molecular target: Val122Ile transthyretin (V122I-TTR) (Homo sapiens, UniProt P02766, V142I); assay: V122I-TTR amyloid fibril formation assay (turbidimetry, acid-induced); type: biochemical; conditions: pH 4.4, 72 hours; for Fibril Formation (%): V122I-TTR 3.6 μM, 37° C.

inhibition of fibril formation ([1]; 1:2 compound-protein stoichiometry (0.5×), TTR 3.6 μM)	Fibril Formation (%) ([1]; pH 4.4, 72 hours)	IC50 ([1]; WT-TTR fixed at 3.6 μM, ten compound concentrations, pH 4.4, 72 hours) [nM]	Fibril Formation (%) [2] [%]	IC50 ([2]; V122I-TTR fixed at 3.6 μM, ten compound concentrations) [nM]	Compound	inhibitory activity against TTR amyloid fibril formation compared with reference compounds (in words) ([1]; TTR 3.6 μM, pH 4.4, 72 hours)
above 70%	28	1770 ± 240	52	3730	COc1cc(/C=C2\SC(=S)N(CC(=O)O)C2=O)cc(Cl)c1O [AT50-A00 (Z), (Z)-3-hydroxycarbonylmethyl-5-(3′-chloro-4′-hydroxy-5′-methoxyphenylmethylidene)-2-thioxothiazolidin-4-one]	superior to that of reference compounds Tafamidis
	43		49		O=C(O)c1ccc2nc(-c3cc(Cl)cc(Cl)c3)oc2c1 [Tafamidis, reference compound]	

From US11584727B2, “2-thioxothiazolidin-4-one derivatives active as transthyretin ligands and uses thereof” (BSIM Therapeutics, S.A., priority 2014, dated 2023)
